Literature values in paper PMC6530907 (Biochemistry, 2019).

Biological target: YbtE
Conditions: cited from earlier work

For Nc1ncnc2c1ncn2[C@@H]1O[C@H](COS(=O)(=O)NC(=O)c2ccccc2O)[C@@H](O)[C@H]1O [compound 1, 5´-O-[N-salicylsulfamoyl]adenosine], the Ki is given as 0.7 nM.
